Structures can show the parent of a compound that is named as a salt. Where two headings read alike, the source gives them in different places.
Columns and labels:
Vero-B4 cells = experiment: WST-1 cell viability (cytotoxicity) assay in non-infected Vero-B4 cells; details: 3 days; for toxic effect (WST assay): antivirally effective concentrations
Description: Toxicity was assessed with a WST assay. Herein viable cells with an intact mitochondrial succinate-tetrazolium dehydrogenase system effect an enzymatic conversion of the feebly red tetrazolium salt WST-1 (4-[3-(4-iodophenyl)-2-(4-nitrophenyl)-2H-5-tetrazolio]-1,3 benzene disulfonate) into dark red formazan. This color change can be measured photometrically in a spectrophotometer. Thus, the WST assay is a very sensitive method for measuring the toxicity of substances on the cell metabolism.
In FIG. 4 the percentage of viable cells is depicted in comparison to untreated cells. The value for untreated cells was set to 100%. 1 μM staurosporine (an indolocarbazole compound from Streptomyces staurosporeus, an apoptosis inducer) was used as positive control.
In FIG. 8 the percentage of viable cells is depicted in comparison to untreated cells wherein the value for untreated cells was set to 100%. Again 1 μM staurosporine was used as positive control.

SARS-CoV-2 [1] = type: cell-based; details: infected Vero-B4 cells, 3 dpi; for inhibition of SARS-CoV-2 protein generation compared with same/respective concentration of chloroquine or hydroxychloroquine (densitometry): comparators at 10 μM
SARS-CoV-2 [2] = type: cell-based; details: infected Vero-B4 cells, 3 dpi
[3] = quinine sulfate series up to 100 μM

Row | Compound | toxic effect (WST assay) (Vero-B4 cells) | generation of SARS-CoV-2 proteins (densitometric evaluation of nucleoprotein in virus fraction) (SARS-CoV-2 [1]; 100 nM to 100 μM) | inhibition of SARS-CoV-2 replication (Western blot) (SARS-CoV-2 [1]; 100 nM, 1 μM, 10 μM and 100 μM) | block of virus replication (Western blot) (SARS-CoV-2 [1]; 100 μM) | inhibition of SARS-CoV-2 protein generation compared with same/respective concentration of chloroquine or hydroxychloroquine (densitometry) (SARS-CoV-2 [1]) | reduction compared with 10 μM chloroquine or 10 μM hydroxychloroquine (Western blot) (SARS-CoV-2 [1]; [3]) | reduction in the amount of SARS-CoV-2 RNA copies (qRT-PCR) (SARS-CoV-2 [2]; 100 nM, 1 μM, 10 μM and 100 μM) | reduction of SARS-CoV-2 RNA copies (qRT-PCR) (SARS-CoV-2 [2]; 10 μM) | block of virus spread (qRT-PCR) (SARS-CoV-2 [2]; 100 μM) | reduction compared with 10 μM chloroquine or 10 μM hydroxychloroquine (qRT-PCR) (SARS-CoV-2 [2]; [3]) | concentration up to which no toxic effect was detectable (WST assay) (Vero-B4 cells; tested 2.5 to 80 μM) | block of virus replication (Western blot) (SARS-CoV-2 [1]; 20 μM) | inhibition of SARS-CoV-2 replication (Western blot) (SARS-CoV-2 [1]; 2.5, 5, 10 and 20 μM) | generation of SARS-CoV-2 proteins (densitometric evaluation of nucleoprotein in virus fraction) (SARS-CoV-2 [1]; 2.5 to 20 μM) | reduction compared with 10 μM chloroquine or 10 μM hydroxychloroquine (Western blot) (SARS-CoV-2 [1]; quinidine sulfate series up to 20 μM) | reduction of SARS-CoV-2 RNA copies (qRT-PCR) (SARS-CoV-2 [2]; 2.5 μM, 5 μM, 10 μM and 20 μM) | reduction compared with 10 μM chloroquine or 10 μM hydroxychloroquine (qRT-PCR) (SARS-CoV-2 [2]; 20 μM) | reduction of SARS-CoV-2 RNA copies (qRT-PCR) (SARS-CoV-2 [2]; 20 μM)
1 | C=C[C@H]1C[N@@]2CC[C@H]1C[C@H]2[C@H](O)c1ccnc2ccc(OC)cc12 [quinine sulfate] | did not display any significant toxic effect | inhibited in a dose-dependent manner | dose-dependent inhibition | complete block of virus replication | higher percentage | significantly higher | dose-dependent reduction | approximately 85% | complete block of virus spread | significantly higher |  |  |  |  |  |  |  | 
2 | C=C[C@H]1C[N@@]2CC[C@H]1C[C@@H]2[C@@H](O)c1ccnc2ccc(OC)cc12 [quinidine sulfate] | did not display any significant toxic effect |  |  |  | higher percentage |  |  | approximately 82% |  |  | Up to 80 μM | nearly complete block of virus replication | dose-dependent inhibition | inhibited in a dose-dependent manner | clearly higher | dose-dependent reduction | significant better reduction | approximately 97%
